Data as given in the supplement of paper PMC6045584.
± gives the standard deviation of the averaged measurements.

Key:
SAPACITABINE [1] = compound: T1, CCCCCCCCCCCCCCCC(=O)Nc1ccn([C@@H]2O[C@H](CO)[C@@H](O)[C@@H]2C#N)c(=O)n1 [SAPACITABINE]; assay: surviving fraction relative to DMSO-only wells; higher = less growth inhibition; settings: exposure time: 5 days
Method in brief: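 Each tumour cell line was screened three times, and only lines with replicate Pearson r >0.7 and median Z' >0.3 were kept. Cells in log phase were seeded at 250–500 per well in 384-well plates, left 24 hours, then exposed continuously for five days to inhibitors at 0.5, 1, 5, 10, 50, 100, 500 and 1000 nM. Viability was read as CellTiter-Glo luminescence, with surviving fraction normalised to the median of DMSO-only wells.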

CANERTINIB = compound: C=CC(=O)Nc1cc2c(Nc3ccc(F)c(Cl)c3)ncnc2cc1OCCCN1CCOCC1 [CANERTINIB]; assay: area under dose-response curve of surviving fraction (unscaled, Aref=0) (surviving fraction x log10(nM)); higher = more resistant; settings: exposure time: 5 days; dose range 0.5-1000 nM
Method in brief: (§1)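 Surviving fractions were fitted by 3-parameter logistic regression in the drc R package to give dose-response survival curves. They came from tumour cell lines treated for five days with eight inhibitor concentrations from 0.5 to 1000 nM and read by CellTiter-Glo luminescence against DMSO-only wells. The area under the curve is the unscaled activity area. It was calculated over log10 dose with Aref = 0.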

SNX-5422 = compound: CC1(C)CC(=O)c2c(C(F)(F)F)nn(-c3ccc(C(N)=O)c(N[C@H]4CC[C@H](OC(=O)CN)CC4)c3)c2C1 [SNX-5422]; assay: as above; settings: exposure time: 5 days; dose range 0.5-1000 nM
Method in brief: as §1

SAPACITABINE [2] = compound: T1, SAPACITABINE; assay: as above; settings: exposure time: 5 days; dose range 0.5-1000 nM
Method in brief: as §1

BI-2536 = compound: CC[C@@H]1C(=O)N(C)c2cnc(Nc3ccc(C(=O)NC4CCN(C)CC4)cc3OC)nc2N1C1CCCC1 [BI-2536]; assay: as above; settings: exposure time: 5 days; dose range 0.5-1000 nM
Method in brief: as §1

AFATINIB = compound: CN(C)C/C=C/C(=O)Nc1cc2c(Nc3ccc(F)c(Cl)c3)ncnc2cc1O[C@H]1CCOC1 [AFATINIB]; assay: as above; settings: exposure time: 5 days; dose range 0.5-1000 nM
Method in brief: as §1

MDV3100 = compound: CNC(=O)c1ccc(N2C(=S)N(c3ccc(C#N)c(C(F)(F)F)c3)C(=O)C2(C)C)cc1F [MDV3100]; assay: as above; settings: exposure time: 5 days; dose range 0.5-1000 nM
Method in brief: as §1

[3] = compound: Cn1cc(C2=Nc3cc(NC(=O)C(N)C4CCCCC4)cc4c3C2=CNNC4=O)cn1; assay: as above; settings: exposure time: 5 days; dose range 0.5-1000 nM
Method in brief: as §1

TIOGUANINE = compound: Nc1nc2[nH]cnc2c(=S)[nH]1 [TIOGUANINE]; assay: as above; settings: exposure time: 5 days; dose range 0.5-1000 nM
Method in brief: as §1

“JURKAT HAEMATOPOIETIC AND LYMPHOID TISSUE” showed a surviving fraction (SAPACITABINE [1]; 0.5 nM) of 0.944 ± 0.031, a surviving fraction (SAPACITABINE [1]; 1 nM) of 0.973 ± 0.03 and a surviving fraction (SAPACITABINE [1]; 5 nM) of 0.52 ± 0.0059. The surviving fraction (SAPACITABINE [1]; 10 nM) was 0.245 ± 0.008, the surviving fraction (SAPACITABINE [1]; 50 nM) was 0.078 ± 0.0036 and the surviving fraction (SAPACITABINE [1]; 100 nM) was 0.034 ± 0.001. For the same test system, the surviving fraction (SAPACITABINE [1]; 500 nM) was 0.0213 ± 0.00058, the surviving fraction (SAPACITABINE [1]; 1000 nM) was 0.023 and the “area under dose-response curve” value (CANERTINIB) was 3.29. For the same test system, the “area under dose-response curve” value (SNX-5422) was 1.7, the “area under dose-response curve” value (SAPACITABINE [2]) was 1.09 and the “area under dose-response curve” value (BI-2536) was 0.479. The “area under dose-response curve” value (AFATINIB) was 3.13, the “area under dose-response curve” value (MDV3100) was 3.49 and the “area under dose-response curve” value [3] was 2.23. The “area under dose-response curve” value (TIOGUANINE) was 3.27.
SNU475 LIVER was tested, and the surviving fraction (SAPACITABINE [1]; 0.5 nM) was 0.888 ± 0.063, the surviving fraction (SAPACITABINE [1]; 1 nM) was 0.726 ± 0.057 and the surviving fraction (SAPACITABINE [1]; 5 nM) was 0.83 ± 0.03. The surviving fraction (SAPACITABINE [1]; 10 nM) was 0.365 ± 0.03, the surviving fraction (SAPACITABINE [1]; 50 nM) was 0.962 ± 0.057 and the surviving fraction (SAPACITABINE [1]; 100 nM) was 0.745 ± 0.025. For the same test system, the surviving fraction (SAPACITABINE [1]; 500 nM) was 0.573 ± 0.016, the surviving fraction (SAPACITABINE [1]; 1000 nM) was 0.291 ± 0.015 and the “area under dose-response curve” value (CANERTINIB) was 2.91. For the same test system, the “area under dose-response curve” value (SNX-5422) was 2.29, the “area under dose-response curve” value (SAPACITABINE [2]) was 2.23 and the “area under dose-response curve” value (BI-2536) was 1.41. For the same test system, the “area under dose-response curve” value (AFATINIB) was 2.99, the “area under dose-response curve” value (MDV3100) was 2.8 and the “area under dose-response curve” value [3] was 3. The “area under dose-response curve” value (TIOGUANINE) was 3.14.
Work on 22RV1 PROSTATE yielded a surviving fraction (SAPACITABINE [1]; 0.5 nM) of 0.89 ± 0.094, a surviving fraction (SAPACITABINE [1]; 1 nM) of 1.06 ± 0.16 and a surviving fraction (SAPACITABINE [1]; 5 nM) of 0.894 ± 0.042. It also gave a surviving fraction (SAPACITABINE [1]; 10 nM) of 0.8687 ± 0.0045, a surviving fraction (SAPACITABINE [1]; 50 nM) of 0.746 ± 0.12 and a surviving fraction (SAPACITABINE [1]; 100 nM) of 0.692 ± 0.099. The surviving fraction (SAPACITABINE [1]; 500 nM) was 0.333 ± 0.029, the surviving fraction (SAPACITABINE [1]; 1000 nM) was 0.199 ± 0.034 and the “area under dose-response curve” value (CANERTINIB) was 3.32. The “area under dose-response curve” value (SNX-5422) was 1.82, the “area under dose-response curve” value (SAPACITABINE [2]) was 2.46 and the “area under dose-response curve” value (BI-2536) was 0.963. For the same test system, the “area under dose-response curve” value (AFATINIB) was 3.06, the “area under dose-response curve” value (MDV3100) was 3.12 and the “area under dose-response curve” value [3] was 2.97. The “area under dose-response curve” value (TIOGUANINE) was 3.28.
MDAMB231 BREAST gave a surviving fraction (SAPACITABINE [1]; 0.5 nM) of 0.91 ± 0.016, a surviving fraction (SAPACITABINE [1]; 1 nM) of 0.919 ± 0.022 and a surviving fraction (SAPACITABINE [1]; 5 nM) of 0.936 ± 0.031. For the same test system, the surviving fraction (SAPACITABINE [1]; 10 nM) was 0.927 ± 0.034, the surviving fraction (SAPACITABINE [1]; 50 nM) was 0.936 ± 0.043 and the surviving fraction (SAPACITABINE [1]; 100 nM) was 0.882 ± 0.053. The surviving fraction (SAPACITABINE [1]; 500 nM) was 0.648 ± 0.03, the surviving fraction (SAPACITABINE [1]; 1000 nM) was 0.516 ± 0.019 and the “area under dose-response curve” value (CANERTINIB) was 3.15. For the same test system, the “area under dose-response curve” value (SNX-5422) was 2.3, the “area under dose-response curve” value (SAPACITABINE [2]) was 2.9 and the “area under dose-response curve” value (BI-2536) was 1.56. The “area under dose-response curve” value (AFATINIB) was 3.07, the “area under dose-response curve” value (MDV3100) was 3.22 and the “area under dose-response curve” value [3] was 2.84. For the same test system, the “area under dose-response curve” value (TIOGUANINE) was 3.15.
With SG43 HEADNECK the surviving fraction (SAPACITABINE [1]; 0.5 nM) was 1.04 ± 0.091, the surviving fraction (SAPACITABINE [1]; 1 nM) was 1.28 ± 0.23 and the surviving fraction (SAPACITABINE [1]; 5 nM) was 1.08 ± 0.17. It also gave a surviving fraction (SAPACITABINE [1]; 10 nM) of 1.11 ± 0.29, a surviving fraction (SAPACITABINE [1]; 50 nM) of 0.867 ± 0.14 and a surviving fraction (SAPACITABINE [1]; 100 nM) of 1.04 ± 0.072. For the same test system, the surviving fraction (SAPACITABINE [1]; 500 nM) was 0.933 ± 0.13, the surviving fraction (SAPACITABINE [1]; 1000 nM) was 1.05 ± 0.04 and the “area under dose-response curve” value (CANERTINIB) was 1.92. The “area under dose-response curve” value (SNX-5422) was 1.7, the “area under dose-response curve” value (SAPACITABINE [2]) was 3.5 and the “area under dose-response curve” value (BI-2536) was 1.83. The “area under dose-response curve” value (AFATINIB) was 1.3, the “area under dose-response curve” value (MDV3100) was 3.06 and the “area under dose-response curve” value [3] was 3.31. For the same test system, the “area under dose-response curve” value (TIOGUANINE) was 2.96.
SAOS2 BONE showed a surviving fraction (SAPACITABINE [1]; 0.5 nM) of 0.806 ± 0.032, a surviving fraction (SAPACITABINE [1]; 1 nM) of 0.811 ± 0.019 and a surviving fraction (SAPACITABINE [1]; 5 nM) of 0.875 ± 0.029. The surviving fraction (SAPACITABINE [1]; 10 nM) was 0.779 ± 0.057, the surviving fraction (SAPACITABINE [1]; 50 nM) was 0.776 ± 0.013 and the surviving fraction (SAPACITABINE [1]; 100 nM) was 0.566 ± 0.071. For the same test system, the surviving fraction (SAPACITABINE [1]; 500 nM) was 0.199 ± 0.018, the surviving fraction (SAPACITABINE [1]; 1000 nM) was 0.153 ± 0.017 and the “area under dose-response curve” value (CANERTINIB) was 2.87. For the same test system, the “area under dose-response curve” value (SNX-5422) was 1.96, the “area under dose-response curve” value (SAPACITABINE [2]) was 2.19 and the “area under dose-response curve” value (BI-2536) was 0.684. For the same test system, the “area under dose-response curve” value (AFATINIB) was 3.04, the “area under dose-response curve” value (MDV3100) was 3.65 and the “area under dose-response curve” value [3] was 2.52. For the same test system, the “area under dose-response curve” value (TIOGUANINE) was 3.44.
CASKI CERVIX gave a surviving fraction (SAPACITABINE [1]; 0.5 nM) of 0.804 ± 0.055, a surviving fraction (SAPACITABINE [1]; 1 nM) of 0.843 ± 0.048 and a surviving fraction (SAPACITABINE [1]; 5 nM) of 0.795 ± 0.026. The surviving fraction (SAPACITABINE [1]; 10 nM) was 0.746 ± 0.04, the surviving fraction (SAPACITABINE [1]; 50 nM) was 1.02 ± 0.053 and the surviving fraction (SAPACITABINE [1]; 100 nM) was 0.936 ± 0.036. The surviving fraction (SAPACITABINE [1]; 500 nM) was 0.45 ± 0.019, the surviving fraction (SAPACITABINE [1]; 1000 nM) was 0.268 ± 0.0036 and the “area under dose-response curve” value (CANERTINIB) was 1.85. For the same test system, the “area under dose-response curve” value (SNX-5422) was 1.63, the “area under dose-response curve” value (SAPACITABINE [2]) was 2.91 and the “area under dose-response curve” value (BI-2536) was 0.43. For the same test system, the “area under dose-response curve” value (AFATINIB) was 0.986, the “area under dose-response curve” value (MDV3100) was 3.17 and the “area under dose-response curve” value [3] was 2.04. For the same test system, the “area under dose-response curve” value (TIOGUANINE) was 3.1.
T47D BREAST was tested, and the surviving fraction (SAPACITABINE [1]; 0.5 nM) was 0.9004 ± 0.0044, the surviving fraction (SAPACITABINE [1]; 1 nM) was 0.871 ± 0.029 and the surviving fraction (SAPACITABINE [1]; 5 nM) was 0.911 ± 0.078. The surviving fraction (SAPACITABINE [1]; 10 nM) was 0.825 ± 0.035, the surviving fraction (SAPACITABINE [1]; 50 nM) was 0.961 ± 0.06 and the surviving fraction (SAPACITABINE [1]; 100 nM) was 0.918 ± 0.036. The surviving fraction (SAPACITABINE [1]; 500 nM) was 0.649 ± 0.0094, the surviving fraction (SAPACITABINE [1]; 1000 nM) was 0.519 ± 0.039 and the “area under dose-response curve” value (CANERTINIB) was 3.01. The “area under dose-response curve” value (SNX-5422) was 2.33, the “area under dose-response curve” value (SAPACITABINE [2]) was 2.9 and the “area under dose-response curve” value (BI-2536) was 1.66. For the same test system, the “area under dose-response curve” value (AFATINIB) was 3.42, the “area under dose-response curve” value (MDV3100) was 3.29 and the “area under dose-response curve” value [3] was 3.35. For the same test system, the “area under dose-response curve” value (TIOGUANINE) was 3.35.
